Measurements as given in US20120184517A1, “TREATMENT OF DISEASES WITH ALTERED SMOOTH MUSCLE CONTRACTILITY” (priority 2009, published 2012).
Values after ≈ are worked out from the molar mass of the structure shown. “Also recorded” adds a separate entry of the source.

Tests used:
[1] = system: canine subarachnoid hemorrhage model; conditions: 5 μM injected into the cistera magna; cited from earlier work
[2] = biological target: glutamate-aspartate transporter (GLAST) (Homo sapiens, UniProt P43003); conditions: cited from earlier work
[3] = biological target: T1, BKCa channel (mSlo) (Mus musculus, UniProt Q08460); test: Whole cell patch clamp of HEK293 cells stably transfected with mSlo; assay type: cell-based, murine
T1 construct: expressed in transfected cells
Procedure: FIGS. 4A and 4B show representative current traces from whole cell patches with 5 mM EGTA in patch pipette. […] Voltage steps are shown at the right of each tracing; note the different maximum voltage steps +200 mV (upper) vs. +120 mV (lower). […] FIG. 4C G-V curves were constructed for indicated conditions utilizing tail analysis (Xia, et al., Multiple regulatory sites in large-conductance calcium-activated potassium channels. Nature, 2002. 418(6900):880-4). Solid lines were fitted with Boltzmann function. […] FIGS. 4D and 4E show experiments studying stable mslo HEK293 cells in whole cell configuration with a pipette solution containing 5 mM EGTA (˜0 free Ca^2+).
Current in the diary plot in FIG. 5B represents maximal current in ramp protocol at +70 mV. Holding potential of ramp was −20 mV, with ramp from −30 mV to +180 mV over 500 ms. The G-V curve in FIG. 5C was generated from the tail analysis as described in FIG. 4.
(§1) Current was monitored with a ramp protocol; holding potential −60 mV, with ramp from −80 mV to +150 mV over 500 ms. […] Analysis was performed using tail analysis with normalization as previously described (Xia, et al., Multiple regulatory sites in large-conductance calcium-activated potassium channels. Nature, 2002. 418(6900):880-4). […] Identification of the BKCa channel was determined by conductance and inhibition by iberiotoxin and TEA. […] Murine femoral arterial rings were isolated and placed in a wire myograph. […] The figures shown are representative of 4 similar experiments. Error bars are standard error of the mean (SEM). Asterisk (*) indicates p<0.001.

[4] = biological target: 3-phosphoinositide-dependent protein kinase-1 (PDK-1) (Homo sapiens, UniProt O15530); conditions: 20 μM; cited from earlier work
[5] = system: CD4+ and CD8+ human T lymphocyte; conditions: dose-dependent; cited from earlier work
[6] = biological target: T2, BKCa channel α (mSlo) and β1 subunits (Mus musculus, UniProt Q08460); test: Whole cell recording of HEK cells co-expressing α and β1 subunits; assay type: cell-based; conditions: HEK293 cells expressing both mSlo and β1 subunit
T2 construct: expressed in transfected cells; host or cells: HEK293
Procedure: as §1, with “ms. Extracellular application of NS-1619 (10 μM) increased current as previously described (Olesen, et al., Selective activation of Ca^2+-dependent K^+ channels by novel benzimidazolone. Eur. J. Pharmacol., 1994. 251(1):53-9).” for “ms.”

[7] = system: guinea pigs; conditions: 10-20 mg/kg/day×6 days; cited from earlier work
[8] = biological target: mitogen- and stress-activated protein kinase 1 (MSK-1) (Homo sapiens, UniProt O75582); conditions: 20 μM; cited from earlier work
[9] = system: mitochondria in intact cells; conditions: cited from earlier work
[10] = system: rats; conditions: 10-20 mg/kg/day×6 days; cited from earlier work
[11] = biological target: T3, recombinant BK (mSlo1) (Mus musculus, UniProt Q08460); test: Cell-free outside-out/inside-out patch single channel recordings from HEK cells; assay type: biochemical, murine
T3 construct: expressed in transfected cells
Procedure: Ca^2+ was maintained at 0 (virtual; actual <20 nM) through dialysis using a patch pipette.

[12] = biological target: PKA (Homo sapiens, UniProt P17612); conditions: 20 μM; cited from earlier work
[13] = biological target: glycogen synthase kinase 3β (Homo sapiens, UniProt P49841); conditions: 20 μM; cited from earlier work
[14] = biological target: PKCδ (Homo sapiens, UniProt Q05655); conditions: cited from earlier work
[15] = system: membrane potential of tracheal smooth muscle cells; test: Membrane potential measurement in tracheal smooth muscle cells; assay type: cell-based, mice
Procedure: (§2) In this experiment, murine tracheal smooth muscle cells were acutely isolated and whole cell patch clamped as previously described (Zakharov, S. et al., (2005) J Biol Chem 280, 30882-30887).
The membrane potential was recorded using perforated patch clamp technique.

[16] = biological target: casein kinase II (Homo sapiens, UniProt P68400); conditions: cited from earlier work
[17] = cited from earlier work
[18] = system: WT tracheal rings; test: Isoproterenol-induced relaxation of WT tracheal rings on a myograph; assay type: cell-based, murine; conditions: rottlerin compared to PBS
Procedure: (n=4 each). Asterisk (*) indicates P<0.05 versus vehicle (DMSO). […] Cumulative dose-response curves of WT tracheal rings to isoproterenol in the absence and presence of 100 nM iberiotoxin (IbTX), a specific BK channel inhibitor. Values in graphs are means±standard deviation.
as §2
To dissect which (or both) β-AR pathways are responsible for the effects, tracheal rings were pre-incubated with either β1-AR antagonist (CGP 20712A; 100 nM) or a β2-AR antagonist (ICI 118551; 100 nM) or vehicle (DMSO). […] To confirm that the isoproterenol-induced relaxation was dependent upon BK channel-induced hyperpolarization, IbTX, a specific inhibitor of the BK channel, was used.

T3 sequence (Q08460 whole entry): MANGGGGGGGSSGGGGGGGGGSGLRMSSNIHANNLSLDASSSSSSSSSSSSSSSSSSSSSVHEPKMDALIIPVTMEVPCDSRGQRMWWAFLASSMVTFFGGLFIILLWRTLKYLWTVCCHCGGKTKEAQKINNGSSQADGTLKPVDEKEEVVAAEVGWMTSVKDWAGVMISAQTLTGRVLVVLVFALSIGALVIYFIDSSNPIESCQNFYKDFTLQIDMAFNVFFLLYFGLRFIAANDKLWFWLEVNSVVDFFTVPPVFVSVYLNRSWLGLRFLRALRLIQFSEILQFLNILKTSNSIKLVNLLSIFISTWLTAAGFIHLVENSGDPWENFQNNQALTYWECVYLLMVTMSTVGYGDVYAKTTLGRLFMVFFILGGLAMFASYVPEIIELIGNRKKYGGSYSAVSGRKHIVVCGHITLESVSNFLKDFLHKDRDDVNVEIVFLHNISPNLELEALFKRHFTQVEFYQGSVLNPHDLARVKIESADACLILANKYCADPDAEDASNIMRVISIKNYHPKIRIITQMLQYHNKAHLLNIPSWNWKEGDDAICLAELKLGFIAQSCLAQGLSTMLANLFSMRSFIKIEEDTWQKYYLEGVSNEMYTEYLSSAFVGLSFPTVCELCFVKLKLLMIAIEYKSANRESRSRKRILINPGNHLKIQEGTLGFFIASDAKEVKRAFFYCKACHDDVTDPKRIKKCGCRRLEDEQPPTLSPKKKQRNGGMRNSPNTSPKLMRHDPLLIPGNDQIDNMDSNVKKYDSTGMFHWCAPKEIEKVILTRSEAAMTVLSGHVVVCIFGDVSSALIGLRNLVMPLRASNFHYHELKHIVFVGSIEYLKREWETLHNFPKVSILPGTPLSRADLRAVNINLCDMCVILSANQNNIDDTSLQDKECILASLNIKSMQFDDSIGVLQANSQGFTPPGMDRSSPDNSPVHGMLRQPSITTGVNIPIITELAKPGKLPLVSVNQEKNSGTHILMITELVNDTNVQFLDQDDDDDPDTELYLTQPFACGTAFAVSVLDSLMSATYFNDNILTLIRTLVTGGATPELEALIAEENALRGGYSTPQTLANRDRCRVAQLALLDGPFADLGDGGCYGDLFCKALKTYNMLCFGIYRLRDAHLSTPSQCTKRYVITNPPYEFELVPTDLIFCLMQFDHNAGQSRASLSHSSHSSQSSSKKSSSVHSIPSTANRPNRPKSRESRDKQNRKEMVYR
T1 sequence (Q08460 whole entry): as above
Sequence of glycogen synthase kinase 3β (P49841 whole entry): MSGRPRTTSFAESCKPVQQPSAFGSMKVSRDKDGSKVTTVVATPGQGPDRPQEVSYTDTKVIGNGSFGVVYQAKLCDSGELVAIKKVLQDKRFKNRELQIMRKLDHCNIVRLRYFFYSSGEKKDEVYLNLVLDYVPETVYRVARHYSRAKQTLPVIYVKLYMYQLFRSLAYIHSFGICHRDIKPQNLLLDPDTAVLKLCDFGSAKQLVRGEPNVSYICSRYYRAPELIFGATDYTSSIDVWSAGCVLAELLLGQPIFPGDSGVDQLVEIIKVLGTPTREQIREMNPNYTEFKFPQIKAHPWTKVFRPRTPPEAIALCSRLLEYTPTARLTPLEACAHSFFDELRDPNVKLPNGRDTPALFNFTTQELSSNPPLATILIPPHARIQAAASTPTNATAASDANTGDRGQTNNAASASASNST
Sequence of casein kinase II (P68400 whole entry): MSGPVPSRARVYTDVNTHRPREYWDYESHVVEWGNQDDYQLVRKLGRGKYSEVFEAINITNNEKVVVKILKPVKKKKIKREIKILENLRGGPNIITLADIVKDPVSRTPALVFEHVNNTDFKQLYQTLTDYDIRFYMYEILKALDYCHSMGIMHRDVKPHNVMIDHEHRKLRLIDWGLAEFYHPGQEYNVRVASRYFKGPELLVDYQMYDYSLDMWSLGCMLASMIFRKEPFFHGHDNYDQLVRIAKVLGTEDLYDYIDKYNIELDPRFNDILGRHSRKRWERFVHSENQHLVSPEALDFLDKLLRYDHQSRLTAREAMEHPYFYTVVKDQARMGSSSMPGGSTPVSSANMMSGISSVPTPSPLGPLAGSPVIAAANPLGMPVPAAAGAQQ
Sequence of mitogen- and stress-activated protein kinase 1 (MSK-1) (O75582 whole entry, species assumed): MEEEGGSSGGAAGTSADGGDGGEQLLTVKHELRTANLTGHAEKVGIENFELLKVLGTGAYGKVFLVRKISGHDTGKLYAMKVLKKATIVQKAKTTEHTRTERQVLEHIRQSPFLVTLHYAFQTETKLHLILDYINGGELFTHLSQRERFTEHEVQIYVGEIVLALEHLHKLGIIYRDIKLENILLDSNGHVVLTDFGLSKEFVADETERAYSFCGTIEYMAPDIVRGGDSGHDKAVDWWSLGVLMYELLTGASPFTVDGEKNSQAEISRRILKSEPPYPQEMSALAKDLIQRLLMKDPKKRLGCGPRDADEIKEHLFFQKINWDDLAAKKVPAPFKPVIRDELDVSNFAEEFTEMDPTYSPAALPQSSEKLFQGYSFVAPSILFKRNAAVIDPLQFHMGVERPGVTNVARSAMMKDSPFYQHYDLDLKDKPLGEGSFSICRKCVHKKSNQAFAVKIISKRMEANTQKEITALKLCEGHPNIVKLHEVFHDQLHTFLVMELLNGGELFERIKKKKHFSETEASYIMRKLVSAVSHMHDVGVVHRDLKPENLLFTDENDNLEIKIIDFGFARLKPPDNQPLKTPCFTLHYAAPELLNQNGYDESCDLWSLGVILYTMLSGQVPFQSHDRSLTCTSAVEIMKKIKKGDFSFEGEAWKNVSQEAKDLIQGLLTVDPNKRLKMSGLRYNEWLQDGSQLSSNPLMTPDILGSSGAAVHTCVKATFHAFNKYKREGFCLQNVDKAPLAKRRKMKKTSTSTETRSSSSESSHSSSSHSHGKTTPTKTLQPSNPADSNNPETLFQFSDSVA
T2 sequence (Q08460 whole entry): as the sequence (Q08460 whole entry) above
Sequence of glutamate-aspartate transporter (GLAST) (P43003 whole entry, species assumed): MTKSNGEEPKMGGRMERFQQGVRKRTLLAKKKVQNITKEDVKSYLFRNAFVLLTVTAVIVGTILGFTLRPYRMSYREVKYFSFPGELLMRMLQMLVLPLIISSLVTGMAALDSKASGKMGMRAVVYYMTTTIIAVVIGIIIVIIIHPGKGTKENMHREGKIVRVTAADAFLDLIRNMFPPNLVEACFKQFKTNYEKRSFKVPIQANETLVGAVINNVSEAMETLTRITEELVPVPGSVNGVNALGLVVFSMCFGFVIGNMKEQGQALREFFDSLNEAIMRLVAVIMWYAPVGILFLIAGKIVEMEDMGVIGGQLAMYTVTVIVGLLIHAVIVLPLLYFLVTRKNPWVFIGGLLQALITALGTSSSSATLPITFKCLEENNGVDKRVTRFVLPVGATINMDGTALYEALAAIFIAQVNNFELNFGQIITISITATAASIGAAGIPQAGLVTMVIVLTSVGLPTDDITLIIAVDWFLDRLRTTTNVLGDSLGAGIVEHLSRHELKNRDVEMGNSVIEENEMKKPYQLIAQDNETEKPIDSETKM
Sequence of 3-phosphoinositide-dependent protein kinase-1 (PDK-1) (O15530 whole entry, species assumed): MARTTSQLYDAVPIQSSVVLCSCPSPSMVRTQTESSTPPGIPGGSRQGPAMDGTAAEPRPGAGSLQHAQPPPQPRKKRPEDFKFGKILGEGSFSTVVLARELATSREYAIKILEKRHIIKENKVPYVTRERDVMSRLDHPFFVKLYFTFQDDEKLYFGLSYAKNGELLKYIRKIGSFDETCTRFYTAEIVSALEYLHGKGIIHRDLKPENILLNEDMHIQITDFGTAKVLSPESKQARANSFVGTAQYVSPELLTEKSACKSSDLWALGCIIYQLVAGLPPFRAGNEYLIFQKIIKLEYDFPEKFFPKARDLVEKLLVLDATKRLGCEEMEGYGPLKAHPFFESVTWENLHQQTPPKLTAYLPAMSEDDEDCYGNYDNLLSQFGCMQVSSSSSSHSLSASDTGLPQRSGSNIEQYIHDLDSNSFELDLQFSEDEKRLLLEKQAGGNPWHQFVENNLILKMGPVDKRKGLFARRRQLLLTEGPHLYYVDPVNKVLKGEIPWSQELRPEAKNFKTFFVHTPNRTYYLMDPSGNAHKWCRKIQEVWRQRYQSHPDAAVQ
Sequence of PKCδ (Q05655 whole entry): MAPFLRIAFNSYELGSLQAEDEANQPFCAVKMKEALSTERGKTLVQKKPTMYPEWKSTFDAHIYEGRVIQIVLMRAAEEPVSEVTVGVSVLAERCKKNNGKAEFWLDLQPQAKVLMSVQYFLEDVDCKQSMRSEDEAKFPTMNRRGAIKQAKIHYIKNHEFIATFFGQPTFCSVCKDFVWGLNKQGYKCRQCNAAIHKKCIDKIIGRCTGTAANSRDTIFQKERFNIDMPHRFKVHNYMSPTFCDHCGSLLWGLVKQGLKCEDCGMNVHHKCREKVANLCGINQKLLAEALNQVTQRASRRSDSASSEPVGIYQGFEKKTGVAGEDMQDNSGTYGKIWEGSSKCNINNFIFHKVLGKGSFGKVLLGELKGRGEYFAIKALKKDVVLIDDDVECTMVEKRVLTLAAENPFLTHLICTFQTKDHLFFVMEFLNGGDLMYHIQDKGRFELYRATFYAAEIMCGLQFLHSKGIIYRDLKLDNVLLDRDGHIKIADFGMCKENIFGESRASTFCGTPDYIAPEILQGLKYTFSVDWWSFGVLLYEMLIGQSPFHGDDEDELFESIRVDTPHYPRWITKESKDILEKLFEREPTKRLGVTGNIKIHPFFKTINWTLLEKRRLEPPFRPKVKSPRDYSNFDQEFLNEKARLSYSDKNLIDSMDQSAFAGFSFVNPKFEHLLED

CC(=O)c1c(O)c(C)c(O)c(Cc2c(O)c3c(c(C(=O)/C=C/c4ccccc4)c2O)OC(C)(C)C=C3)c1O [rottlerin, 5,7-dihydroxy-2,2-dimethyl-6-(2,4,6-trihydroxy-3-methyl-5-acetylbenzyl)-8-cinnamoyl-I,2-chromene]
cerebral vasospasm [1]: inhibited the initial phase of cerebral vasospasm | capacity of GLAST [2]: decrease the capacity | tail currents (deactivation) ([3]; after exposure to rottlerin): markedly prolonged | concentration at which channel activity was dramatically increased ([3]; extracellular, non-Ca2+ dependent, reversible): < 100 nM | current after NS-1619 administration ([3]; rottlerin 0.5 μM added after NS-1619, 0 Ca2+): incrementally increased current | effect of intracellular dialysis on channel activity ([3]; up to 20 μM in patch pipette, 25 minutes): only a relatively small effect; also recorded: minimal effect | inhibition [4]: 64% | T lymphocyte proliferation [5]: inhibits | channel activation [6]: activated the channel | fertility rate [7]: reduce the fertility rate | inhibition [8]: 62% | mitochondrial uncoupling ([9]; 10 μM): uncouple mitochondria | ATP levels ([9]; PKC independent): reduce ATP levels | fertility rate [10]: reduce the fertility rate | channel open probability ([11]; 0.5 μM rottlerin, outside-out patches from HEK cells, absence of ATP): significant increase | experiments in which activation was found ([11]; rottlerin 0.5 μM bath application, outside-out patch, +30 mV, n=18): 100% | channel conductance ([11]; rottlerin 0.5 μM, outside-out, 0 Ca2+): does not significantly change | inhibition [12]: 83% | inhibition [13]: 87% | IC50 [14]: 3 to 6 µM | membrane potential ([15]; after rottlerin application (1 μM), FIGS. 11B and 11D): significant hyperpolarization | membrane potential ([15]; perforated patch clamp, rottlerin 2 μM, FIG. 15): significant hyperpolarization | IC50 [16]: 30 to 100 µM | solubility in DMSO ([17]; DMSO): 100 mM (≈ 51.7 mg/mL) | solubility in ethanol ([17]; ethanol): 2 mM (≈ 1.03 mg/mL) | ISO-induced relaxation [18]: enhanced the ISO-induced relaxation
